Assay results reported in patent US11524941B2, “Pyrazole compounds as LSD1 inhibitors and applications thereof” (MEDSHINE DISCOVERY INC., priority 2020, dated 2022).
Where a name gives a salt, the structure may show the parent alone.

Tested on: NCI-H1417 cells
Assay: Proliferation inhibitory activity against NCI-H1417 cells (CellTiter-Glo)
Format: cell-based
Settings: Homo sapiens, 240 h, 10 days incubation, starting concentration 10 μM, read-out: IC50 (nM), NCI-H1417 cell proliferation inhibition
Protocol: Experimental purpose: To detect the inhibitory activity of the compounds against NCI-H1417 cells.
Experimental materials: RPMI 1640 medium, fetal bovine serum, Promega CellTiter-Glo reagent. The NCI-H1417 cell line was purchased from ATCC. Envision multilabel analyzer (PerkinElmer).
Experimental method: The compounds were dissolved to 10 mM, and the compounds were diluted 5 times with DMSO in the compound plate. The starting concentration of the compound was 2 mM, diluted 3 times with Bravo to 10 concentrations. Echo was used to transfer 250 nL to the top and bottom double wells of a blank 384 cell plate, and 250 nL of DMSO/compound was added to a cell suspension of 1000 cells/50 μL per well, and the compounds were diluted 200 times, i.e. the starting concentration was 10 μM. Cell plates were incubated in a carbon dioxide incubator for 10 days. 25 μL of Promega CellTiter-Glo reagent per well was added to the cell plate, and the mixture was shaken for 10 minutes at room temperature to stabilize the luminescence signal. Readings were taken using a PerkinElmer Envision multilabel analyzer.
Data analysis: The equation (Max-Ratio)/(Max-Min)*100% was used to convert the original data into inhibition rate, the IC50 value can be obtained by curve fitting with four parameters. (derived from 205 mode in XLFIT5, iDBS)

IC50: 107 nM
Structure (SMILES): CC(C)(O)Cn1nnc2cc(-c3cn(CC(=O)N4CCC[C@@H](N)C4)nc3-c3ccc(C#N)c(F)c3)ccc21 [Hydrochloride of compound 22]
